Data as given in patent publication US7871644B2, “Pharmaceutical composition for oral use with improved absorption” (Astellas Pharma Inc., priority 2000, dated 2011).

Key:
[1] = Number of insoluble particulate matter after adding calcium chloride to bisphosphonate solution; conditions: calcium chloride solution added, 0-60 minutes
Protocol: Another 2 ml distilled water were added to this liquid.
Then 2 ml of an aqueous 10 mg/ml calcium chloride.2H2O solution were added to this liquid.

[2] = Int. J. Pharm., 1993; cited from earlier work
[3] = J. Pharm. Sci, 86, 1997; cited from earlier work
[4] = Oral administration of compound B tablets to beagles 30 minutes after feed; format: in vivo; conditions: fed beagles
[5] = Number of insoluble particulate matter after adding magnesium chloride to compound B solution; conditions: compound B solution with sodium bicarbonate, magnesium chloride solution added, 0-60 minutes, FIG. 7
Protocol: Another 2 ml distilled water were added to this solution and the number of insoluble particulate matter (2 μm or larger) was determined 0, 15, 30, and 60 minutes after addition using an insoluble particulate matter gauge (HIAC/ROYCO®, Pacific Scientific).
Two milliliters aqueous 10 mg/ml magnesium chloride.6H2O solution were added to this prepared liquid, and the number of insoluble particulate matter (2 μm or larger) was determined 0, 15, 30 and 60 minutes after addition by the same method as in Experiment 11.
Two milliliters aqueous 10 mg/ml magnesium chloride.6H2O were added to this prepared liquid, and the number of insoluble particulate matter (2 μm or larger) was determined 0, 15, 30 and 60 minutes after addition by the same method as in Experiment 11.

## CC(O)(P(=O)(O)O)P(=O)(O)O [compound D, (1-hydroxyethylidene)-1,1-bisphosphonate]
[1]; compound D solution with sodium bicarbonate, FIG. 5
  number of insoluble particulate matter (2 μm or larger): increase in the number of insoluble particulate matter

## C[C@]12CC[C@H]3[C@@H](CCC4=CC(=O)CC[C@@]43C)[C@@H]1CC[C@@H]2O [testosterone]
[2]
  share of the barrier to absorption accounted for by the mucous layer: 78%
[3]
  reduction of the diffusion coefficient by the mucous layer: 50%

## O=P(O)(O)C(NC1CCCCCC1)P(=O)(O)O [compound C, [(cycloheptylamino)-methylene]bis-phosphonate]
[1]; compound C solution with sodium bicarbonate, FIG. 4
  number of insoluble particulate matter (10 μm or larger): increase in the number of insoluble particulate matter

## O=P(O)(O)C(O)(Cc1cnc2ccccn12)P(=O)(O)O [compound B]
[4]
  Cmax and AUC when taken with food: low Cmax and AUC
[5]
  number of insoluble particulate matter (2 μm or larger): increase in the number of insoluble particulate matter
[1]; compound B solution, FIG. 2
  number of insoluble particulate matter (10 μm or larger): increase in the number of insoluble particulate matter
